The source of these data is US20040048754A1, “Compounds for a controlled release of active compounds” (priority 2001, published 2004).

Common to all, as to assay type: physicochemical
A short description of data set [1]: Amount of cyclization of the precursor under alkaline hydrolysis conditions (HPLC). The settings on record: 20° C., first step of cyclization only, % relative to total amount of starting compound. The protocol:
Buffer solutions were prepared by dissolving two phosphate or borate buffer tablets (origin: Fluka, Switzerland) in a mixture of 160 ml water and 40 ml acetonitrile, respectively. To determine the exact pH value of the reaction solution, 10 ml of the buffer solutions were diluted with 2 ml of acetonitrile and the pH values measured (on a Mettler Toledo MP220 apparatus with an InLab 410 Ag/AgCl glass electrode) to be 7.62 (phosphate buffer) and 10.47 (borate buffer).
0.2 ml of a solution of 35 to 45 mg of the precursors in 25 ml of acetonitrile were added to 1.0 ml of a buffer solution at 20° C. The mixture was immediately injected in a HPLC apparatus (t=0), eluted at 1 ml/min on a reversed phase column with a mixture of water/acetonitrile containing 0.1% of TFA. Then the decrease of the amount of precursor and the simultaneous formation of the cyclized products was monitored at different time intervals at λ=254 and 280 nm. Chromatograms were recorded on a Macherey-Nagel, Nucleosil® 100-5 C18 column (250×4 mm i.d.) using a water/acetonitrile gradient (70:30 to 20:80 during 20 min) or on a Merck Chromolith™ SpeedROD RP-C18e column (50×4.6 mm i.d.) using a water/acetonitrile gradient (70:30 to 40:60 during 3 min).

A short description of data set [2]: Amount of perfumery alcohols released by alkaline hydrolysis (HPLC). Particulars: % relative to total amount of starting compound. As for the experimental part:
[…] To determine the exact pH value of the reaction solution, 10 ml of the buffer solutions were diluted with 2 ml of acetonitrile and the pH values measured (on a Mettler Toledo […]).
About 25 mg of the precursors were placed in 1 ml of a buffer solution, 0.2 ml of acetonitrile was added and the supernatant solution was immediately injected in a […] HPLC apparatus (t=0), eluted at 3 ml/min on a reversed phase column with a mixture of water/acetonitrile containing 0.1% of TFA. The amount of the released alcohol was monitored by HPLC analysis at different time intervals at λ=214 or 254 nm. An external calibration curve for the corresponding alcohol in acetonitrile has been obtained from 4-8 dilutions. Chromatograms were recorded on a Merck Chromolith™ Performance RP-C18e column (100×4.6 mm i.d.) using a water/acetonitrile gradient (100:0 for 0.2 min then to 0:100 during 10 min or 80:20 to 20:80 during 10 min).

Data set [3] in a line: Measure of fragrance release (hydrolysis) by UV spectroscopy. Particulars: phosphate buffer, 20° C., 260-360 nm. As for the experimental part:
2 ml of a precursor solution (35-55 mg in 25 ml of acetonitrile, at 20° C.) were added, at t=0, to 10 ml of a phosphate buffer solution (prepared as described in Example 14).
Hydrolysis was followed by recording the absorption spectra of the reaction mixture at constant time intervals in the range of 260-360 nm with a scanning rate of 960 nm/min until completion of the hydrolysis.

For the compound `CC(C)(Cc1ccccc1)OC(=O)c1ccccc1C(=O)NCCCCCCCNC(=O)c1ccccc1C(=O)OC(C)(C)Cc1ccccc1` [Example 4, bis(1,1-dimethyl-2-phenylethyl) 2,2′-(1,11-dioxo-2,10-diazaundecane-1,11-diyl)dibenzoate], the “Amount of cyclized precursor” value in data set [1] (pH 10.47, 3.0 h) is given as 98%.

For the compound `CC(C)(Cc1ccccc1)OC(=O)c1ccccc1C(=O)NCCCN(CCCNC(=O)c1ccccc1C(=O)OC(C)(C)Cc1ccccc1)CCCN(CCCCN(CCCN(CCCNC(=O)c1ccccc1C(=O)OC(C)(C)Cc1ccccc1)CCCNC(=O)c1ccccc1C(=O)OC(C)(C)Cc1ccccc1)CCCN(CCCNC(=O)c1ccccc1C(=O)OC(C)(C)Cc1ccccc1)CCCNC(=O)c1ccccc1C(=O)OC(C)(C)Cc1ccccc1)CCCN(CCCNC(=O)c1ccccc1C(=O)OC(C)(C)Cc1ccccc1)CCCNC(=O)c1ccccc1C(=O)OC(C)(C)Cc1ccccc1` [Example 7], in data set [2] (pH 10.47, 2 d), the “Amount of released alcohol” value stood at 29%. As to `C=CC(C)(CCC=C(C)C)OC(=O)c1ccccc1C(=O)NCCCN(C)CCCNC(=O)c1ccccc1C(=O)OC(C)(C=C)CCC=C(C)C` (racemic) [Example 5b, (±)-bis(1,5-dimethyl-1-vinyl-4-hexenyl) 2,2′-(6-methyl-1,11-dioxo-2,6,10-triazaundecane-1,11-diyl)dibenzoate], in data set [1] (pH 7.62, 9.4 h), the “Amount of cyclized precursor” value was found to be 72%. In addition, in data set [3], the “Hydrolysis followed by UV absorption spectra” value (“Hydrolysis followed” below) is given as “verified”. With `CCCC(Cc1ccccc1)OC(=O)c1ccccc1C(=O)NCCCN(C)CCCNC(=O)c1ccccc1C(=O)OC(CCC)Cc1ccccc1` (racemic) [Example 2b, (±)-bis(1-benzylbutyl)2,2′-(6-methyl-1,11-dioxo-2,6,10-triazaundecane-1,11-diyl)dibenzoate], the “Amount of cyclized precursor” value in data set [1] (pH 7.62, 2.1 h) was found to be 98%.

With “dendrimer 16-cascade: 1,4-diaminobutane[4-N,N,N′,N′:(1-azabutylidene)^2:N-(2-[(1,1-dimethyl-2-phenylethoxy)carbonyl]benzoyl)propylamine [Example 8]”, in data set [2] (pH 10.98, 4 d, phosphate-bicarbonate buffer in water/acetonitrile 16:9), the “Amount of released alcohol” value is 69%. Take `CN(CCCNC(=O)c1ccccc1C(=O)OC(C)(C)Cc1ccccc1)CCCNC(=O)c1ccccc1C(=O)OC(C)(C)Cc1ccccc1` [Example 3b, bis(1,1-dimethyl-2-phenylethyl) 2,2′-(6-methyl-1,11-dioxo-2,6,10-triazaundecane-1,11-diyl)dibenzoate]: in data set [1] (pH 7.62, 22.4 h), the “Amount of cyclized precursor” value was 69%. The “Hydrolysis followed” value in data set [3] was “verified”. Take `CC(C)(Cc1ccccc1)OC(=O)c1ccccc1C(=O)NCCCN(CCCCN(CCCNC(=O)c1ccccc1C(=O)OC(C)(C)Cc1ccccc1)CCCNC(=O)c1ccccc1C(=O)OC(C)(C)Cc1ccccc1)CCCNC(=O)c1ccccc1C(=O)OC(C)(C)Cc1ccccc1` [Example 6b, Dendrimer 4-cascade: 1,4-diaminobutane[4-N,N,N′,N′]:N-(2-[(1,1-dimethyl-2-phenylethoxy)carbonyl]benzoyl)propylamine]: in data set [1] (pH 7.62, 24.6 h), the “Amount of cyclized precursor” value turned out to be 80%. Further, in data set [3], the “Hydrolysis followed” value was “verified”. As for `CC(C)=CCC/C(C)=C/COC(=O)/C=C\C(=O)NCCNC(=O)/C=C\C(=O)OC/C=C(\C)CCC=C(C)C` [Example 1, (6E,11Z,19Z,24E)-2,6,25,29-tetramethyl-9,22-dioxa-14,17-diaza-2,6,11,19,24,28-triaconta-hexaene-10,13,18,21-tetrone], the “Amount of cyclized precursor” value in data set [1] (pH 7.62, 4.7 h) turned out to be 97%.
